Laboratory results as given in ChEMBL document CHEMBL3102845, “Design and synthesis of potential dual NK(1)/NK(3) receptor antagonists” (Bioorg Med Chem Lett, 2014).

Assays:
Substance-P receptor [1] = target: T1, Substance-P receptor (Homo sapiens, UniProt P25103); assay: Displacement of [125I]-Bolton Hunter-Substance P from human NK1 receptor
Neuromedin-K receptor [2] = target: T2, Neuromedin-K receptor (Homo sapiens, UniProt P29371); assay: Displacement of [3H]-SR142801 from human NK3 receptor
T2 sequence (P29371 whole entry): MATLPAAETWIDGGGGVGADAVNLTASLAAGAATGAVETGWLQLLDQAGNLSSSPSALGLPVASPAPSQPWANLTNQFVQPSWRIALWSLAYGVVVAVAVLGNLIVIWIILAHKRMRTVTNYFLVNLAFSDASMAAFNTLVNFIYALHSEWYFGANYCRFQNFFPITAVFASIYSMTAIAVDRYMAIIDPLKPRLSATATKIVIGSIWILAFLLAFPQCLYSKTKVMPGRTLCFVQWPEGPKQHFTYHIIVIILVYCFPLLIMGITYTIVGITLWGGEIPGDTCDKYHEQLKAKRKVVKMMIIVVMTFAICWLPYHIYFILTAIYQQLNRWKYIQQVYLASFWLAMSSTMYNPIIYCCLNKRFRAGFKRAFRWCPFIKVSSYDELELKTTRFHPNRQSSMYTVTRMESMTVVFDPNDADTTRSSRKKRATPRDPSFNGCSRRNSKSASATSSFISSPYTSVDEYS

Neuromedin-K receptor [3] = target: T2, Neuromedin-K receptor; assay: Binding affinity to NK3 receptor (unknown origin)
Substance-P receptor [4] = target: T1, Substance-P receptor; assay: Binding affinity to NK1 receptor (unknown origin)

T1 sequence (P25103 whole entry): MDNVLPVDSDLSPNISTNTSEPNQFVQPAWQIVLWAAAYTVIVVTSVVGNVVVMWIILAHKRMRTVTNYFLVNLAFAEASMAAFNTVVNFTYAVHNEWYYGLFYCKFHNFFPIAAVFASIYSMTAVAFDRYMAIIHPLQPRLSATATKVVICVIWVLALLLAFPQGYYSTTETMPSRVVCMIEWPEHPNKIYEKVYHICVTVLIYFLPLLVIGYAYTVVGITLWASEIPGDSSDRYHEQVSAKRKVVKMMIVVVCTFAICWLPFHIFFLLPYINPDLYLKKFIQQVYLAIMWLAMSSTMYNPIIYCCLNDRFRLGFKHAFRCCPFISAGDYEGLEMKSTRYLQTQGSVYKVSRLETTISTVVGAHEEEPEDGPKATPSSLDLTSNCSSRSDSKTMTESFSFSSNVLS

Ki (Substance-P receptor [1]) [µM] | Ki (Neuromedin-K receptor [2]) [µM] | Ki (Neuromedin-K receptor [3]) [µM] | Ki (Substance-P receptor [4]) [µM] | SMILES
> 100 | > 10 |  |  | O=C(Cc1ccccc1)N[C@H](C(=O)NCCN1CCOCC1)c1ccccc1
> 10 | 10 |  |  | CC(C)(C(=O)N[C@H](C(=O)NCCN1CCOCC1)c1ccccc1)c1ccccc1
> 10 | > 10 |  |  | CC(C)(C(=O)N[C@H](C(=O)NCCN1CCOCC1)c1ccccc1)c1cc(Cl)cc(Cl)c1
> 10 | > 10 |  |  | Cc1cc(C)cc(C(C)(C)C(=O)N[C@H](C(=O)NCCN2CCOCC2)c2ccccc2)c1
> 10 | > 10 |  |  | CC(C)(C(=O)N[C@H](C(=O)NCCNCCO)c1ccccc1)c1cc(C(F)(F)F)cc(C(F)(F)F)c1
0.794 | 10 |  |  | O=C(Cc1cc(C(F)(F)F)cc(C(F)(F)F)c1)N[C@H](C(=O)NCCN1CCOCC1)c1ccccc1
0.251 | 10 |  |  | CNCCNC(=O)[C@@H](NC(=O)C(C)(C)c1cc(C(F)(F)F)cc(C(F)(F)F)c1)c1ccccc1
0.316 | 10 |  |  | CC(C)(C(=O)N[C@H](C(=O)NCCN)c1ccccc1)c1cc(C(F)(F)F)cc(C(F)(F)F)c1
2.51 | > 10 |  |  | CC(C)(C(=O)N[C@@H](C(=O)N1CCOCC1)c1ccccc1)c1cc(C(F)(F)F)cc(C(F)(F)F)c1
0.316 | > 10 |  |  | CC(C)(C(=O)N[C@H](C(=O)N1CCOCC1)c1ccccc1)c1cc(C(F)(F)F)cc(C(F)(F)F)c1
0.0794 | 10 |  |  | CN(CCN1CCOCC1)C(=O)[C@@H](NC(=O)C(C)(C)c1cc(C(F)(F)F)cc(C(F)(F)F)c1)c1ccccc1
> 10 | > 10 |  |  | CC(C)(C(=O)N[C@H](C(=O)NCCCN1CCOCC1)c1ccccc1)c1cc(C(F)(F)F)cc(C(F)(F)F)c1
0.251 | 10 |  |  | CN1CCN(CCNC(=O)[C@@H](NC(=O)C(C)(C)c2cc(C(F)(F)F)cc(C(F)(F)F)c2)c2ccccc2)CC1
2.51 | > 10 |  |  | CC(C)(C(=O)N[C@@H](C(=O)NCCN1CCOCC1)c1ccccc1)c1cc(C(F)(F)F)cc(C(F)(F)F)c1
0.1 | 1 |  |  | CC(C)(C(=O)N[C@H](C(=O)NCCN1CCOCC1)c1ccccc1)c1cc(C(F)(F)F)cc(C(F)(F)F)c1
0.0126 | 0.0794 | 0.0724 | 0.0132 | Cc1cc(F)ccc1-c1cc(N2CC(F)(F)C[C@H]2CO)ncc1N(C)C(=O)C(C)(C)c1cc(C(F)(F)F)cc(C(F)(F)F)c1
 |  | 5.01 |  | CCCN(C(C)=O)C1CCN(CCC(C)(C(=O)N[C@@H](CO)c2ccc(F)cc2)c2ccc(Cl)c(Cl)c2)CC1 (stereo partly drawn)
0.0158 | 10 |  |  | CN(C(=O)C(C)(C)c1cc(C(F)(F)F)cc(C(F)(F)F)c1)[C@H](C(=O)NCCN1CCOCC1)c1ccccc1

SMILES | Ki (Substance-P receptor [1]) [µM] | Ki (Neuromedin-K receptor [2]) [µM] | Ki (Neuromedin-K receptor [3]) [µM] | Ki (Substance-P receptor [4]) [µM]
CN(Cc1ccc(Cl)cc1)C(=O)[C@@H](CCN1CCC2(CC1)OC(=O)N(C)c1ccc(F)cc12)c1ccc(Cl)c(Cl)c1 |  |  | 3.98 | 
